Experimental data taken from ChEMBL document CHEMBL1201862, “PubChem BioAssay data set” (2004).
One block for each molecule: values may come before it. The source made the active and inactive calls.

Tests used:
[1] = Luminescence Cell-Based Dose Confirmation HTS to Identify Inhibitors of Platelet Dense Granule Release. [Related pubchem assays: 1663 (Primary HTS), 1678 (Summary of Project)]; type: functional
[2] = molecular target: Luciferin 4-monooxygenase (Photinus pyralis, UniProt P08659); experiment: inhibition of purified Photinus pyralis luciferase – biochemical, luminescence, dose response (AID 1891)
[3] = molecular target: T1, Heat shock factor protein 1 (Mus musculus, UniProt P38532); experiment: decrease of HSF1-responsive luciferase luminescence – cell-based, NIH3T3, dose retest, confirmation (AID 2382); type: functional;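 also: NIH3T3 fibroblasts with HSF1-driven luciferase reporter stressed by proteasome inhibitor MG132; luminescence from HSF1-driven luciferase expression after 8 hours of MG132 stress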
T1 sequence (P38532 whole entry): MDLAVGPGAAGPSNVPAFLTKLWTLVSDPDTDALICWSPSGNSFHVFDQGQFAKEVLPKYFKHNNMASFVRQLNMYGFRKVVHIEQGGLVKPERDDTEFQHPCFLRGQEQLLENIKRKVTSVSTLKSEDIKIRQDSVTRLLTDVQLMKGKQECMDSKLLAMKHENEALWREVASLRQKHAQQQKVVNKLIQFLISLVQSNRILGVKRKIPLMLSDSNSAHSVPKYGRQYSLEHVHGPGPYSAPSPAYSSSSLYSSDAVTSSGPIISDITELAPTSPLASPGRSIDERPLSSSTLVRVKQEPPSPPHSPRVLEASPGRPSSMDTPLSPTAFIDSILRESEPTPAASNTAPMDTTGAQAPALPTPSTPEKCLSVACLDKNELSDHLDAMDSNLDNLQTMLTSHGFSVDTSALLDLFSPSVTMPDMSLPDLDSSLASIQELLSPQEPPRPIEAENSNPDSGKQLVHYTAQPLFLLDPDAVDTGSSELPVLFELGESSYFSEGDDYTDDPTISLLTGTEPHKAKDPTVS

[4] = molecular target: T2, Zinc finger protein mex-5 (Caenorhabditis elegans, UniProt Q9XUB2); experiment: potency of MEX-5 RNA-binding blockers – biochemical, C. elegans, fluorescence polarization, dose response (AID 1960)
T2 sequence (Q9XUB2 whole entry): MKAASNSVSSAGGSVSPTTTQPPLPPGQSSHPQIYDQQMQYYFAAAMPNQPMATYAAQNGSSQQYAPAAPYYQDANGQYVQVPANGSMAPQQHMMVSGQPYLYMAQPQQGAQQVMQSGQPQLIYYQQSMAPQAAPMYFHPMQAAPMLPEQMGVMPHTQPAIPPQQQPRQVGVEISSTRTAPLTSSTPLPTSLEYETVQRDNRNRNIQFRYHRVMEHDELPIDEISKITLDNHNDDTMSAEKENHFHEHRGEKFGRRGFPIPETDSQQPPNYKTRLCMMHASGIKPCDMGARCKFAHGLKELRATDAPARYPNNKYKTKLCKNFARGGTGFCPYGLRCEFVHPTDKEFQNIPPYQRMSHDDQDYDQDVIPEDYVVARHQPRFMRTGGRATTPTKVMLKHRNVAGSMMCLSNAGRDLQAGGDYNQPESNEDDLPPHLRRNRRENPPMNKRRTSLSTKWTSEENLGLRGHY

[5] = molecular target: T3, RNA-binding protein pos-1 (Caenorhabditis elegans, UniProt G5EF15); experiment: disruptors of C. elegans POS-1 RNA interaction – biochemical, fluorescence polarization, dose response (AID 1964);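 also: purified POS-1 fused to maltose binding protein made in E. coli; potency of compounds blocking POS-1 binding to fluorescent RNA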
T3 sequence (G5EF15 whole entry): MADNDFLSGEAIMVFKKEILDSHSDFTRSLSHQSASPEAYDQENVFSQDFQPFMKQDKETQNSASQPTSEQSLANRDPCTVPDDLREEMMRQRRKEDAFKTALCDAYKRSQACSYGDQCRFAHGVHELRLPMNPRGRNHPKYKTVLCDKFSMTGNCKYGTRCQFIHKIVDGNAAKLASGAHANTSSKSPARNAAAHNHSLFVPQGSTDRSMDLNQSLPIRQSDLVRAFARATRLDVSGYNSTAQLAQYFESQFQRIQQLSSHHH

H9c2 = experiment: cells; type: functional, cell-based; details: Rattus norvegicus, H9c2, Myocardium;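 also: confirmatory concentration-response retest of ultra-high-throughput screening hits for modulation of myocardial damage; cell death induced by hydrogen peroxide oxidative stress; compound pretreatment for 60 min then peroxide exposure for 2 h; potency is for protecting the cells against peroxide damage rather than for killing them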
Cytochrome P450 3A4 = Cytochrome P450 3A4 (Homo sapiens, UniProt P08684);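 also: CYP3A4 tested as one member of a cytochrome P450 panel screen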
Cytochrome P450 2C19 = Cytochrome P450 2C19 (Homo sapiens, UniProt P33261); experiment: Cytochrome panel assay with activity outcomes. Panel member name: p450-cyp2c19 Compounds with AC50 equal or less than 10 uM are considered active; type: functional; details: read-out: AC50
Cytochrome P450 1A2 = molecular target: T4, Cytochrome P450 1A2 (Homo sapiens, UniProt P05177);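 also: PubChem cytochrome P450 panel assay, CYP1A2 panel member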
T4 sequence (P05177 whole entry): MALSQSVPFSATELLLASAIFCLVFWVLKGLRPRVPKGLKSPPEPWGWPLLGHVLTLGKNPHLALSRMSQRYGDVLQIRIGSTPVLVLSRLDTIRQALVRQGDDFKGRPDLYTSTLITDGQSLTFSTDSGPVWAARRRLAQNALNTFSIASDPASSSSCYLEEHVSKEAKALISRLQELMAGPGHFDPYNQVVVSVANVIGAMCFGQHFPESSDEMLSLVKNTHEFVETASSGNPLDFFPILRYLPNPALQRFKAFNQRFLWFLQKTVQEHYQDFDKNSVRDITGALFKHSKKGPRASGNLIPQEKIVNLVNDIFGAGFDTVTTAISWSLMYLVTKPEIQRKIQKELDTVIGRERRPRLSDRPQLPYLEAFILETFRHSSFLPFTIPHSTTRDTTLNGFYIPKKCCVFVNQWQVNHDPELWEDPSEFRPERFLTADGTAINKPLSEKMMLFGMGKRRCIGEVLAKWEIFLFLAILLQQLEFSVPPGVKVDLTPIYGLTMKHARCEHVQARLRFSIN

Cytochrome P450 2C9 = Cytochrome P450 2C9 (Homo sapiens, UniProt P11712)
Paired box protein Pax-8 = Paired box protein Pax-8 (Homo sapiens, UniProt Q06710); experiment: PAX8 transcriptional activity inhibition in RMG-I – RMG-I cells, luciferase, cherry-pick, dose response (AID 687027); type: functional, cell-based;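 also: luciferase reporter driven by Pax8 target thyroperoxidase promoter measured by SteadyGlo luminescence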
Cytochrome P450 2D6 = Cytochrome P450 2D6 (Homo sapiens, UniProt P10635);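 also: CYP2D6 member of a cytochrome P450 panel assay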
Cytochrome P450 2D6, sequence (P10635 whole entry): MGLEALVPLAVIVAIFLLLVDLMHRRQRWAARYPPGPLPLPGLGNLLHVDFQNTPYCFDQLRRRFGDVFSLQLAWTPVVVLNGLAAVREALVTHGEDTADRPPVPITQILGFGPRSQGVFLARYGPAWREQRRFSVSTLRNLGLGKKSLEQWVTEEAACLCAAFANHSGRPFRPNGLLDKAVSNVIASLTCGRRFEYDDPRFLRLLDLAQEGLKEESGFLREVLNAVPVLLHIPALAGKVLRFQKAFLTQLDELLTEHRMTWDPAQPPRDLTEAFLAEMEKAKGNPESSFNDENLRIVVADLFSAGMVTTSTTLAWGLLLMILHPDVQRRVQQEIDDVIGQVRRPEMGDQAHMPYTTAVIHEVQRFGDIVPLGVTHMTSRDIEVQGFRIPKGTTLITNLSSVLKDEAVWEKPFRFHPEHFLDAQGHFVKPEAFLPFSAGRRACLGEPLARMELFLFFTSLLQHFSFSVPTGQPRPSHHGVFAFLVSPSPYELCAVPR

Luciferin 4-monooxygenase, sequence (P08659 whole entry): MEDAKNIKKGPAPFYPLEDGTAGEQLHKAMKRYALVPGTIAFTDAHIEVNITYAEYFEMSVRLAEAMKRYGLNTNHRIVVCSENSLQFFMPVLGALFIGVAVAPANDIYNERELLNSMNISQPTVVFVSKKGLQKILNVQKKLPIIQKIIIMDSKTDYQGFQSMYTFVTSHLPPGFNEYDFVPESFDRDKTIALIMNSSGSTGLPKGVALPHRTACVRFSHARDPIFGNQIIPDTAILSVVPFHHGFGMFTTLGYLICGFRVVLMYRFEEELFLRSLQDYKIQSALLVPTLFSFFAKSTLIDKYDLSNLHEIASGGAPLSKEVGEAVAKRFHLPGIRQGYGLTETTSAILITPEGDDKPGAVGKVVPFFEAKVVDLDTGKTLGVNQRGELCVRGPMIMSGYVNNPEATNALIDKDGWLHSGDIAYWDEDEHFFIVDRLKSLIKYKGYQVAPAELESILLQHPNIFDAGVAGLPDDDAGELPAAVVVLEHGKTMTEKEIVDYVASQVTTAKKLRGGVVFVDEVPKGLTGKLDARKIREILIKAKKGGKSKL
Paired box protein Pax-8, sequence (Q06710 whole entry): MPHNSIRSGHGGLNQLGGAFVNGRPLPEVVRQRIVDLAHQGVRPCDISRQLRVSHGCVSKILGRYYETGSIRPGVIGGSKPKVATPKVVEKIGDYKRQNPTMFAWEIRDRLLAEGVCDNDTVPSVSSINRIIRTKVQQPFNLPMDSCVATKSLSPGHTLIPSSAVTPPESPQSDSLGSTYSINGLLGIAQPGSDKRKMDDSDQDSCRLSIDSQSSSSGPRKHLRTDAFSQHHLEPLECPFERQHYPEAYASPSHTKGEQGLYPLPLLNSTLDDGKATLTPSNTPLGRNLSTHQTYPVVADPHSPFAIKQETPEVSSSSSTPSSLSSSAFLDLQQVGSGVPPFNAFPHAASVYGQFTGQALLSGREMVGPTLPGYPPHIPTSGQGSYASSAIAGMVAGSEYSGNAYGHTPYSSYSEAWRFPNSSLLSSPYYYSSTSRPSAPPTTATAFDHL
Cytochrome P450 2C19, sequence (P33261 whole entry): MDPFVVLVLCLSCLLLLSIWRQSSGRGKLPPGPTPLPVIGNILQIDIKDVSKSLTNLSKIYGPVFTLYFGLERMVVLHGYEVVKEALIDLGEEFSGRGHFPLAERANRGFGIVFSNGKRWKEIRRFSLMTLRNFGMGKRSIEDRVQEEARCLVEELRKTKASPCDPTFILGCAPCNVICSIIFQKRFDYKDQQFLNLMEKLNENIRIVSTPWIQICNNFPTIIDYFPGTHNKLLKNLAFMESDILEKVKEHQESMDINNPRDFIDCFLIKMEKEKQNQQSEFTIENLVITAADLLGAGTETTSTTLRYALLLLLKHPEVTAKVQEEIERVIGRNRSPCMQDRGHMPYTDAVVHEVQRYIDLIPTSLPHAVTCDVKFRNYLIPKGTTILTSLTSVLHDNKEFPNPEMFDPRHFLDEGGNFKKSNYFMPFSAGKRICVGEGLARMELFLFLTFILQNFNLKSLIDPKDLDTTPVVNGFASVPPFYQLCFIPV
Cytochrome P450 2C9, sequence (P11712 whole entry): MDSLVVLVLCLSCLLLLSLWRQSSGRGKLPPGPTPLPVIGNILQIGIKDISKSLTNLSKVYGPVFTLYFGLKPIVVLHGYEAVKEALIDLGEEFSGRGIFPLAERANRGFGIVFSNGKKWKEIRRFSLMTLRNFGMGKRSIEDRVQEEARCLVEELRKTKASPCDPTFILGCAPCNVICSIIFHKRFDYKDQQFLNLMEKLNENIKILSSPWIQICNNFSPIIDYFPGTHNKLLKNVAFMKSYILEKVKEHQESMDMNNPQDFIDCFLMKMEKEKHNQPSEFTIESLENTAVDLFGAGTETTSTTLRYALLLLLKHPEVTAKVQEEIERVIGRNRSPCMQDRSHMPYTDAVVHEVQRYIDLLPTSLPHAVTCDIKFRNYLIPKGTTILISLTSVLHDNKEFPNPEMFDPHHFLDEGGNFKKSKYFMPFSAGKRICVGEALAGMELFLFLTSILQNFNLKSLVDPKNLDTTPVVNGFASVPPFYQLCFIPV
Cytochrome P450 3A4, sequence (P08684 whole entry): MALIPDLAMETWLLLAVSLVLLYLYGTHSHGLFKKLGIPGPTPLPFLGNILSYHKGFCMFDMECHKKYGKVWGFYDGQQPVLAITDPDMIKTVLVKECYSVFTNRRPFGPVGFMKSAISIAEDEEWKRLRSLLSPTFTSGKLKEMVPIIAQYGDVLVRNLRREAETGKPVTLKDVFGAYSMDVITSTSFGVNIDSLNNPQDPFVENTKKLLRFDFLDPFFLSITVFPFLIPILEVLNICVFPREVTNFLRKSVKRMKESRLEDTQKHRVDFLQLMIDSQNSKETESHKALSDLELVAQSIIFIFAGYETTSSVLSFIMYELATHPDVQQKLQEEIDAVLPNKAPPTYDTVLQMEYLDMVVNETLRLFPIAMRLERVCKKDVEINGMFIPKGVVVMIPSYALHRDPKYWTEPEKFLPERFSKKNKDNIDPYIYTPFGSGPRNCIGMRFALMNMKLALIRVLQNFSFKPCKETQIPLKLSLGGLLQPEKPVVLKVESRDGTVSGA

- EC50 [3]: > 195 µM (not active)
SMILES: O=C(CC(=O)c1ccccc1[N+](=O)[O-])c1ccccc1

- EC50 [3]: > 195 µM (not active)
SMILES: COc1ccc(CC(=O)NCC2CCCN(Cc3ccccc3Cl)C2)cc1 (configuration not stated)

- EC50 [4]: 19.3 µM (inconclusive)
- EC50 [5]: > 300 µM (not active)
SMILES: CC(C)OC(=O)CC(=O)c1sc2nc3c(cc2c1N)CN(C)CC3

- EC50 [3]: > 195 µM (not active)
SMILES: CCN(Cc1cc(=O)oc2cc(C)ccc12)c1ccccc1

- EC50 [4]: > 300 µM (not active)
- EC50 [5]: > 300 µM (not active)
SMILES: COC(=O)c1ccc(C)c(-n2c(C)cc(C=O)c2C)c1

- EC50 [3]: > 195 µM (not active)
SMILES: CC1CCCN(C(=O)C2CCN(S(=O)(=O)c3ccc4c(c3)CC(C)N4C(=O)C3CC3)CC2)C1 (configuration not stated)

- EC50 [3]: > 195 µM (not active)
SMILES: CCn1c(O)cc(=O)nc1SCC(=O)N1CCOCC1

- EC50 [4]: > 300 µM (not active)
- EC50 [5]: 109 µM (active)
SMILES: Cc1ccc(-c2ccccc2)n1-c1cccc(C(=O)O)c1

- EC50 [4]: > 300 µM (not active)
- EC50 [5]: > 300 µM (not active)
SMILES: O=[N+]([O-])c1ccccc1S(=O)(=O)n1nnc2ccccc21

- EC50 [3]: > 195 µM (not active)
SMILES: COc1ccc(N(CC(=O)NCc2ccc(F)cc2)C(=O)Cn2nnc(-c3ccc(C)o3)n2)cc1OC

- EC50 [3]: > 195 µM (not active)
SMILES: O=C(NCc1ccccc1C(F)(F)F)C12CN(Cc3ccccc3)CC1C(c1ccc([N+](=O)[O-])cc1)=NO2 (configuration not stated)

- EC50 [3]: > 195 µM (not active)
SMILES: CC(CN1CCOCC1)OC(=O)C(c1ccccc1)c1ccccc1 (configuration not stated)

- EC50 [4]: 58.6 µM (active)
- EC50 [5]: 92.1 µM (active)
SMILES: COc1ccc(CNC(=O)COC(=O)c2cc(-c3ccc(Cl)s3)nc3ccccc23)cc1

- EC50 [3]: > 195 µM (not active)
SMILES: CCC(=O)Nc1c(-c2ccc(Cl)cc2)c(=O)c2ccccc2n1C

- EC50 [4]: 142 µM (inconclusive)
- EC50 [5]: > 300 µM (not active)
SMILES: N#CC(c1nc2ccccc2nc1OCCO)S(=O)(=O)c1ccccc1 (configuration not stated)

- AC50 (Paired box protein Pax-8): 2.93 µM (active)
SMILES: COc1cccc(-c2cnc3c(NC=O)cc(-c4ccc(OC)cc4OC)cn23)c1

- AC50 (Paired box protein Pax-8): 5.52 µM (active)
SMILES: C[C@H]1CCCCO[C@H](CN(C)S(=O)(=O)c2ccc(Cl)cc2)[C@@H](C)CN([C@@H](C)CO)C(=O)c2cc(NS(=O)(=O)c3ccc(Cl)cc3)ccc2O1

- AC50 (Paired box protein Pax-8): 7.5 µM (active)
SMILES: C[C@@H]1CN([C@@H](C)CO)C(=O)c2cc(NS(=O)(=O)c3ccc(F)cc3)ccc2O[C@@H](C)CCCCO[C@H]1CN(C)Cc1ccc(C(F)(F)F)cc1

- AC50 (Paired box protein Pax-8): 12 µM (active)
SMILES: C[C@@H]1CN([C@H](C)CO)C(=O)c2cc(NC(=O)c3ccncc3)ccc2O[C@@H](C)CCCCO[C@H]1CN(C)Cc1ccc(C(F)(F)F)cc1

- EC50 [3]: > 195 µM (not active)
SMILES: Cc1ccc(CO/N=C/c2c(O)cc(C)oc2=O)cc1

The remaining lines, values behind:

SMILES: COc1ccc(OCC(=O)Nc2nc3ccccc3[nH]2)cc1
- EC50 [1]: > 112 µM (not active)
- EC50 [2]: > 112 µM (not active)

SMILES: COC(=O)c1sccc1NC(=O)Nc1cccc(OC)c1
- EC50 [1]: 4.37 µM (active)
- EC50 [2]: 1.31 µM (active)

SMILES: O=C(Oc1cc(=O)oc2c1c(=O)n1c3c(cccc23)CC1)c1ccc(F)cc1
- EC50 [3]: 22.2 µM (active)

SMILES: Cc1ccc(-c2nnc(O)c3ccccc23)cc1S(=O)(=O)NCCO
- IC50 (H9c2): > 79 µM (inactive)

SMILES: COC/C=C/C1=CC2=CC(=O)C(C)(OC(=O)c3cccs3)C(=O)C2=CO1 (configuration not stated)
- EC50 [4]: 51.8 µM (active)
- EC50 [5]: > 300 µM (not active)

SMILES: COc1c(C)cc(Br)cc1C(=O)Nc1cccc(-c2nc3ncccc3o2)c1
- IC50 (H9c2): > 79 µM (inactive)

SMILES: Cc1nc2ccccc2c2c(N)c3ccccc3n12
- IC50 (H9c2): 21.6 µM (active)

SMILES: Cc1ccc(C(c2c(C)n(C)n(-c3ccccc3)c2=O)c2c(C)n(C)n(-c3ccccc3)c2=O)s1
- IC50 (H9c2): > 79 µM (inactive)

SMILES: COc1ccc2oc(=O)c(C(=O)N3CCCC3)cc2c1
- EC50 [1]: > 112 µM (not active)
- EC50 [2]: > 112 µM (not active)

SMILES: CN1CCC(N(C)C(=O)CCc2nc(O)c3ccccc3n2)CC1
- IC50 (H9c2): > 79 µM (inactive)
- AC50 (Cytochrome P450 3A4): 28.2 µM (inconclusive)

SMILES: CCOC(=O)[C@@]1(C#N)C(c2ccc(Cl)c(Cl)c2)[C@H](C(N)=O)N2C=C(C(C)=O)C=C[C@H]21 (some centres not stated)
- EC50 [4]: 24 µM (inconclusive)
- EC50 [5]: 55.7 µM (inconclusive)

SMILES: COc1ccc(C(=O)N2CCCC(c3nc(-c4ccc(OC)c(OC)c4)no3)C2)c(OC)c1 (configuration not stated)
- EC50 [1]: > 112 µM (not active)
- EC50 [2]: > 112 µM (not active)

SMILES: COC(=O)c1ccc(CSc2nnc(N)s2)cc1
- EC50 [1]: > 112 µM (not active)
- EC50 [2]: > 112 µM (not active)

SMILES: O=c1c2ccccc2nc2c3ccccc3c(NCCO)nn12
- IC50 (H9c2): 20.2 µM (active)

SMILES: NC(=O)c1oc2ccccc2c1NC(=O)c1ccco1
- IC50 (H9c2): 17 µM (active)

SMILES: CCOC(=O)c1nn(-c2ccc3c(c2)CCN3C(C)=O)cc1O
- EC50 [1]: > 112 µM (not active)
- EC50 [2]: > 112 µM (not active)

SMILES: O=C(c1ccco1)N1CCN(Cc2nc3ccc([N+](=O)[O-])cc3c(=O)n2-c2ccccc2F)CC1
- IC50 (H9c2): 27.6 µM (active)

SMILES: CC(C)c1ccc(C2C(C#N)=C(N)N3C(=C2C#N)Sc2ccccc23)cc1 (configuration not stated)
- EC50 [4]: 61.3 µM (active)
- EC50 [5]: 33 µM (inconclusive)
- AC50 (Cytochrome P450 2C19): 14.1 µM (inconclusive)
- AC50 (Cytochrome P450 1A2): 25.1 µM (inconclusive)
- AC50 (Cytochrome P450 2C9): 10 µM (inconclusive)

SMILES: COc1cc(C2C(C#N)=C(N)OC3=C2C(=O)CCC3)ccc1OC(=O)N1CCOCC1 (configuration not stated)
- EC50 [4]: > 300 µM (not active)
- EC50 [5]: > 300 µM (not active)

SMILES: O=C1c2cccnc2Oc2ccc(Cl)cc2N1Cc1ccc(F)cc1
- IC50 (H9c2): > 79 µM (inactive)
- EC50 [3]: > 195 µM (not active)

SMILES: O=C(NCc1cccs1)c1csc2ccccc12
- EC50 [1]: > 112 µM (not active)
- EC50 [2]: > 112 µM (not active)

SMILES: Nc1cc2nc(O)c3ccccc3c2cc1Br
- IC50 (H9c2): > 79 µM (inactive)

SMILES: COc1cc(C2C3=C(COC3=O)OC(C)(C)Oc3cc4c(cc32)OCO4)cc(OC)c1OC (configuration not stated)
- AC50 (Paired box protein Pax-8): 1.78 µM (active)

SMILES: COc1cc(-c2cnc3c(NC=O)cc(-c4cccnc4)cn23)cc(OC)c1OC
- IC50 (H9c2): 22.4 µM (active)

SMILES: CC(=O)c1cccc(NC(=O)C(C)OC(=O)Cc2nnc(O)c3ccccc23)c1 (configuration not stated)
- IC50 (H9c2): > 79 µM (inactive)

SMILES: Brc1cc2c(cc1/C=N/Nc1nc(N3CCCC3)nc(N3CCOCC3)n1)OCO2
- AC50 (Cytochrome P450 2D6): 28.2 µM (inconclusive)
- IC50 (H9c2): > 79 µM (inactive)
- AC50 (Cytochrome P450 1A2): 15.8 µM (inconclusive)

SMILES: COc1ccc(/N=C/C2=C(O)c3ccccc3C2=O)cc1
- EC50 [1]: 3.93 µM (active)
- EC50 [2]: 0.576 µM (active)
